Experimental data from patent US8580579B2, “Hydrophilic and lipophilic rhodamines for labelling and imaging” (Max-Planck-Gesellschaft zur Foerderung der Wissenschaften …, priority 2009, dated 2013).
Entries after “also recorded” stand apart in the source; their conditions may differ. Like-named read-outs stand apart in the source and are kept apart here. Each block holds one compound with its values, some of them ahead of it.

Legend:
[1] = Spectral properties of commercially available dyes (Table 1); type: physicochemical; details: commercial dyes
[2] = cited from earlier work
[3] = cited from earlier work; remark: listed apart in the source
[4] = Photostability order of commercial dyes; type: physicochemical; details: derived from the references to Table 1
Text: Cytochem. 2003, 51, 1699-1712], and only in 2007 its structure has been reported [B. Agnew, K. R. Gee, T. G. Nyberg (Invitrogen), US Pat. 2007/0249014]. Along with rhodamines, the following substance classes were considered as leads for developing of the new fluorescent dyes: BODIPY® derivatives (represented by BODYPY® 630/650 in FIG. 4), carbopyronines (Atto 635 and 647), cyanine dyes (Cy® 5 and Alexa 647), structurally related hybrids of cyanine dyes and benzopyranes (DY-630/635/650) and oxazines (Evoblue 30). BODIPY® derivatives have a substantial drawback: sometimes, fluorescence intensity of their bioconjugates is not directly proportional to a number of labelled sites [R. P. Haugland, A Guide to Fluorescent Probes and Labelling Technologies, Invitrogen Corp., Carlsbad, 2005, p. 53]. Moreover, it is difficult to chemically modify a BODIPY residue in such a way that it becomes water-soluble and more photostable. Carbopyronines have been extensively studied by Drexhage et al. [e.g. A. Zilles, J. Arden-Jacob, K.-H. Drexhage, N. U. Kemnitzer, M. Hammers-Schneider (Atto-tec GmbH), WO 2005/003086 (13 Jan. 2005)]. The carbopyronine dye Atto 647N has been widely used for labelling in many “nanoscopic” studies. Quite recently first STED images of the living cells were recorded at a rate of 28 frames per seconds using this dye [V. Westphal, S. O. Rizzoli, M. A. Lauterbach, D. Kamin, R. Jahn, S. W. Hell, Science 2008, 320, 246-249]. In the course of this study, the movements of synaptic vesicles inside the axons of cultured neurons were recorded with a resolution of ca. 60 nm. […] However, it is not easy to further improve the properties of the carbopyronine dye Atto 647N and make it more hydrophilic. […] Lower photostability and moderate Φfl-values of cyanine dyes make them inappropriate as lead structures. Short lifetimes of the excited states and presumably low Φfl-values of oxazines (e.g. Evoblue 30), as well as their moderate photostability, make the optimization of their properties not very promising.

[5] = Fluorescence quantum yield, Atto 633 as reference; type: physicochemical; details: Atto 633 as reference (Φfl = 64% in aqueous buffer)
Text: Moreover, intersystem crossing rates (kISC) and rates of the T1→S0 transitions were also found to be the same for both deuterated and undeuterated substances (see ref. to Table 2).

[6] = UV-visible absorption and fluorescence spectra of the dyes of the invention; type: physicochemical; details: for λmax (abs.) / λmax (fl.) / ε · 10^−5: solvent MeOH
Protocol: UV-visible absorption spectra were recorded on a Varian Cary 4000 UV-Vis spectrophotometer, and fluorescence spectra on a Varian Cary Eclipse fluorescence spectrophotometer. Reactions were carried out upon magnetic stirring in Schlenk flasks equipped with septa or reflux condensers with bubble-counters under argon using a standard manifold with vacuum and argon lines. All NMR spectra are referenced to tetramethylsilane as an internal standard (δ=0 ppm) using the signals of the residual protons of CHCl3 (7.26 ppm) in CDCl3, CHD2OD (3.31 ppm) in CD3OD, HOD (4.75 ppm) in D2O, [D5]acetone (2.04 ppm) in [D6]acetone or [D5]DMSO (2.50 ppm) in [D6]DMSO. Multiplicities of signals are described as follows: s=singlet, br. s=broad singlet, d=doublet, t=triplet, q=quartet, quint=quintet, m=multiplet, mc=centrosymmetrical multiplet. Coupling constants (J) are given in Hz. Multiplicities in the ^13C NMR spectra were determined by APT (Attached Proton Test) measurements. Low resolution mass spectra (electro spray ionization, ESI) were obtained with LCQ and ESI-TOF mass-spectrometers (MICROTOF (focus), Fa. Bruker). The MICROTOF spectrometer equipped with ESI ion source Apollo and direct injector with LC autosampler Agilent RR 1200 was used for obtaining high resolution mass spectra (ESI-HRMS). ESI-HRMS were obtained also on APEX IV spectrometer (Bruker). HPLC system (Knauer): Smartline pump 1000 (2×), UV detector 2500, column thermostat 4000 (25° C.), mixing chamber, injection valve with 20 and 100 μL loop for the analytical and preparative columns, respectively; 6-port-3-channel switching valve; analytical column: Eurospher-100 C18, 5 μm, 250×4 mm, 1.1 mL/min; preparative column: Eurospher-100-5 C18, 5 μm, 250×8 mm, 3.7 mL/min; solvent A: water+0.1% v/v trifluoroacetic acid (TFA); solvent B: MeCN+0.1% v/v TFA; detection at 636 nm (if not stated otherwise). Normal phase analytical TLC was performed on MERCK ready-to-use plates with silica gel 60 (F254) and reversed phase TLC—on RP-18W/UV254 precoated TLC plates (Macherey-Nagel). Preparative TLC was performed on MERCK HPTLC silica gel 60 plates (10×10 cm, layer thickness 0.2 mm). Column chromatography: MERCK silica gel, grade 60, 0.04-0.063 mm or Polygoprep 60-50 C18 (Macherey-Nagel).

[7] = Solubility and polarity of the dyes
[8] = 8 M urea solution; cited from earlier work
[9] = Chemical and storage stability of dyes and reactive derivatives; type: physicochemical; details: for chemical stability of the active ester: isolation and storage; for stability in a solid state: under Ar
Text: Usually, amino- or thiol reactive derivatives of the fluorescent dyes are used for labelling of proteins. For conjugation with amines, the free carboxy group needs to be activated by the formation of N-hydroxy(sulfo)succinimidyl esters, phenyl esters with electron-acceptor groups in the benzene ring or similar compounds with good leaving groups. […] Ester 8 partly decomposed in the course of chromatographic isolation using silica gel. Therefore, the reaction mixture containing the active ester 8 was used for labelling the lipids in their non-polar domain and other coupling procedures. […] They were isolated by reversed-phase HPLC using the gradient elution with aqueous acetonitrile with 0.1% (v/v) of TFA, lyophilized and stored at −20° C. under argon. Under these conditions, the content of the corresponding acids 6/6D in the very light dark blue voluminous solids increased from 3-5% up to 7-10% in 2 months. The higher stability of the NHS esters 9 and 10 may be explained by the absence of any nucleophilic counter ion. The maleimide derivative 11 has been prepared straight from compounds 9 and 10 by combining them in DMF with Et3N as base. It was also isolated by HPLC.

[10] = as above; type: physicochemical

Compound: CC[N+]1=c2cc3c(cc2C(C)CC1(C)C)=C(c1ccccc1C(=O)N(C)CCCC(=O)O)c1cc2c4c(c1C3(C)C)CCCN4CCC2.[O-][Cl+3]([O-])([O-])[O-] (mixture of isomers) [Atto 647N]
Stokes shift [1]: 25 nm
Solubility (solvents) [2]: DMF, DMSO
Φfl ([3]; no solvent given in the cell): 65%
ε · 10^−5 ([3]; solvent PBS): 1.5 M^−1 cm^−1
λmax (abs.) ([3]; solvent PBS): 644 nm
λmax (fl.) ([3]; solvent PBS): 669 nm
τfl ([3]; solvent not given): 3.4 ns
order of the photoresistance [4]: Atto 633>Atto 647N>Alexa® 647>Alexa® 633>Cy® 5

Compound: CCN(CC)CC.CCN(CC)CC.CN1c2cc3c(cc2-c2sc(S(=O)(=O)O)cc2C1(C)C)C(c1c(F)c(SCC(=O)O)cc(F)c1S(=O)(=O)[O-])=c1cc2c(cc1O3)=[N+](C)C(C)(C)c1cc(S(=O)(=O)O)sc1-2 [Alexa ® 633]
Stokes shift [1]: 15 nm
Solubility (solvents) [2]: DMSO, H2O^3
ε · 10^−5 ([3]; solvent MeOH): 1.0 M^−1 cm^−1
λmax (abs.) ([3]; solvent MeOH): 632 nm
λmax (fl.) ([3]; solvent MeOH): 647 nm
τfl ([3]; solvent not given): 3.2 ns
order of the photoresistance [4]: Atto 633>Atto 647N>Alexa® 647>Alexa® 633>Cy® 5

Compound: CC[N+]1=c2cc3c(cc2CCC1)=C(c1ccccc1C(=O)N(C)CCCC(=O)O)c1ccc(N(C)C)cc1C3(C)C [Atto 633]
Solubility (solvents) [2]: DMF, DMSO,; also recorded: (H2O) MeCN^2
τfl ([3]; H2O): 3.2 (H2O) ns
Φfl ([3]; no solvent given in the cell): 64%
ε · 10^−5 ([3]; solvent H2O): 1.3 M^−1 cm^−1
λmax (abs.) ([3]; solvent H2O): 629 nm
λmax (fl.) ([3]; solvent H2O): 657 nm
order of the photoresistance [4]: Atto 633>Atto 647N>Alexa® 647>Alexa® 633>Cy® 5

Compound: CC1=CC(C)(C)N2CCCc3c4c(cc1c32)C(c1c(F)c(F)c(F)c(F)c1C(=O)[O-])=c1cc2c3c(c1O4)CCC[N+]=3C(C)(C)C=C2C [Compound 4]
Φfl in water [5]: 63%
λmax (abs.) [6]: 616 nm
λmax (fl.) [6]: 641 nm
Solubility (solvents) [7]: CHCl3, THF
polarity [7]: non-polar
solubility in organic solvents [7]: soluble in most organic solvents
solubility in water or aqueous buffers [7]: low solubility in water or aqueous buffers; also recorded: insoluble in water
absorption maximum [8]: 630 nm
emission maximum [8]: 655 nm

Compound: CC[N+]1=C(C=CC=CC=C2N(CCCCCC(=O)O)c3ccc(S(=O)(=O)O)cc3C2(C)C)C(C)(C)c2cc(S(=O)(=O)[O-])ccc21 [Cy ® 5]
τfl ([3]; H2O): 0.9 (H2O)^1 ns
Φfl ([3]; PBS): 27%
τfl ([3]; PBS): 1 (PBS)^11 ns
ε · 10^−5 ([3]; solvent H2O): 2.5 M^−1 cm^−1
λmax (abs.) ([3]; solvent H2O): 647 nm
λmax (fl.) ([3]; solvent H2O): 663 nm
order of the photoresistance [4]: Atto 633>Atto 647N>Alexa® 647>Alexa® 633>Cy® 5

More lines, main results first:

Φfl in water [5]: 53%
Stokes shift ([6]; dyes of the invention): 23 nm
ε · 10^−5 [6]: 0.73 M^−1 cm^−1
λmax (abs.) [6]: 638 nm
λmax (fl.) [6]: 661.5 nm
Solubility (solvents) [7]: DMF, THF, CHCl3;
polarity [7]: non-polar
solubility in water or aqueous buffers [7]: very slightly soluble in water
Compound: CC1=CC(C)(C)N2CCCc3c4c(cc1c32)C(c1c(F)c(F)c(F)c(F)c1C(=O)N(C)CCC(=O)O)=c1cc2c3c(c1O4)CCC[N+]=3C(C)(C)C=C2C [Compound 5-H]
solubility in organic solvents [7]: moderately soluble in polar organic solvents; also recorded: very good

Φfl in water [5]: 62%
ε · 10^−5 [6]: 0.66 M^−1 cm^−1
λmax (abs.) [6]: 638 nm
λmax (fl.) [6]: 661.5 nm
Solubility (solvents) [7]: DMF, THF, CHCl3;
polarity [7]: non-polar
solubility in water or aqueous buffers [7]: insoluble in water
Compound: COC(=O)CCN(C)C(=O)c1c(F)c(F)c(F)c(F)c1C1=c2cc3c4c(c2Oc2c1cc1c5c2CCCN5C(C)(C)C=C1C)CCC[N+]=4C(C)(C)C=C3C [Compound 5-Me]
solubility in organic solvents [7]: soluble in most organic solvents (except alkanes)

Φfl in water [5]: 61%
ε · 10^−5 [6]: 0.92 M^−1 cm^−1
λmax (abs.) [6]: 638 nm
λmax (fl.) [6]: 661 nm
Solubility (solvents) [7]: DMF, THF, CHCl3;
polarity [7]: non-polar
solubility in water or aqueous buffers [7]: insoluble in water
Compound: CC1=CC(C)(C)N2CCCc3c4c(cc1c32)C(c1c(F)c(F)c(F)c(F)c1C(=O)N(C)CCC(=O)OC(C)(C)C)=c1cc2c3c(c1O4)CCC[N+]=3C(C)(C)C=C2C [Compound 5-tBu]
solubility in organic solvents [7]: soluble in most organic solvents (except alkanes)

chemical stability of the active ester [9]: Low chemical stability
Compound: CC1=CC(C)(C)N2CCCc3c4c(cc1c32)C(c1c(F)c(F)c(F)c(F)c1C(=O)N(C)CCC(=O)Oc1c(F)c(F)cc(F)c1F)=c1cc2c3c(c1O4)CCC[N+]=3C(C)(C)C=C2C [Compound 8]

chemical stability of the active ester [9]: remarkably stable
stability in a solid state [9]: stable
solubility in water or aqueous buffers [7]: soluble in water
stability in aqueous solutions ([10]; at RT): decomposes
Compound: CN(CCC(=O)ON1C(=O)CCC1=O)C(=O)c1c(F)c(F)c(F)c(F)c1C1=c2cc3c4c(c2Oc2c1cc1c5c2CCCN5C(C)(C)C=C1CS(=O)(=O)O)CCC[N+]=4C(C)(C)C=C3CS(=O)(=O)[O-] [Compound 9]

stability in a solid state [9]: stable
solubility in water or aqueous buffers [7]: soluble in water
Compound: CN(CCC(=O)NCCN1C(=O)C=CC1=O)C(=O)c1c(F)c(F)c(F)c(F)c1C1=c2cc3c4c(c2Oc2c1cc1c5c2CCCN5C(C)(C)C=C1CS(=O)(=O)O)CCC[N+]=4C(C)(C)C=C3CS(=O)(=O)O [Compound 11]
stability in methanol or methanol-containing solutions [10]: decomposes; also recorded: sensitive to methanol even at room temperature
